# In patent EP1589016A1, “Thio-substituted tricyclic and bicyclic aromatic methanesulfinyl derivatives” (CEPHALON FRANCE, priority 2004, dated 2005):
# Tested on: Rats
# Assay: Evaluation of Wake Promoting Activity in Rats (EEG/EMG sleep/wake scoring)
# Type: in vivo, Wistar rats
# Details: i.p. route, 100 mg/kg; for Mean AUC 0-3h, Test compound: n = 4 rats per test compound, group mean, compared with vehicle group (8 rats); for wakefulness compared to the vehicle-treated control groups: rats, p< 0.05 versus vehicle
# Procedure: The methodology utilized for evaluating wake promoting activity of test compounds is based on that described by Edgar and Seidel, Journal of Pharmacology and Experimental Therapeutics, 283:757-769, 1997, and incorporated herein in its entirety by reference.
# Animal Surgery. Adult, male Wistar rats (275-320g from Charles River Laboratories, Wilmington, MA) were anesthetized (Nembutal, 45 mg/kg, ip.) and surgically prepared with implants for recording of chronic EEG (encephalographic) and EMG (electromyographic) recording. The EEG implants were made from commercially available components (Plastics One, Roanoke, VA). EEG signals were recorded from stainless steel screw electrodes: 2 frontal (+3.0 mm AP from bregma, ±2.0 mm ML), and 2 occipital (-4.0 mm AP from bregma, ±2.0 mm ML). Two Teflon-coated stainless steel wires were positioned under the nuchal trapezoid muscles for EMG recording. All electrode leads were inserted into a connector pedestal and the pedestal affixed to the skull by application dental acrylic. Antibiotic was administered post surgically and antibiotic cream was applied to the wound edges to prevent infection. At least one week elapsed between surgery and recording.
# Recording environment. Postsurgically, rats were housed in pairs in an isolated room. Food and water were available ad libitum, ambient temperature was 21°C, and humidity was 55%. At least 24 hrs prior to recording, they were placed in Nalgene containers (31 x 31 x 31 cm) with a wire-grid top, and entry to the room was prohibited during the day of recording except for dosing. The containers were placed on a rack with two shelves, 4 containers per shelf. Fluorescent overhead room lights were set to a 24 hr. light/dark cycle (on at 7 AM, off at 7 PM). Light levels inside the containers were 38 and 25 lux for the top and bottom shelves respectively. Background white-noise (68db inside the containers) was present in the room to mask ambient sounds.
# Data acquisition. EEG and EMG signals were led via cables to a commutator (Plastics One) and then to pre-amplifiers (model 1700, A-M Systems, Carlsborg, WA). EEG and EMG signals were amplified (10K and 1K respectively) and bandpass filtered between 0.3 and 500 Hz for EEG and between 10 and 500 Hz for EMG. These signals were digitized at 128 samples per second using ICELUS sleep research software (M. Opp, U. Texas; see Opp, Physiology and Behavior 63:67-74, 1998, and Imeri, Mancia, and Opp, Neuroscience 92:745-749, 1999, incorporated by reference herein in their entirety) running under Labview 5.1 software and data acquisition hardware (PCI-MIO-16E-4; National Instruments, Austin, TX). On the day of dosing, data was recorded for 6 to 10 hours beginning at 11 AM.
# Drug administration and study design. Compounds were evaluated on groups of from 4 to 8 rats carried out over one or two separate test sessions. Each animal was tested with a different compound or vehicle for up to 10 weeks with at least 7 days between successive tests. A vehicle group was included in all experiments, and each animal received vehicle every 4th test. Test compounds were suspended in sterile 0.25% methylcellulose (pH=6.2; Upjohn Co., Kalamazoo, MI) at […]. Although compounds can be administered at dosages greater than 100 mg/kg and are expected to be active under the selection criteria of data analysis, unless otherwise noted, compounds were administered at a single dose of 100 mg/kg. Dosing was carried out at noon, while the rats were predominantly asleep. Each rat was lifted out of its container, given an intraperitoneal injection in a volume of 5 mL/kg, and replaced. Dosing required approximately 30 sec per rat.
# Sleep / wake scoring. Sleep and wake activity were determined manually using ICELUS software. […]
Compound,"Mean AUC 0-3h, Test compound",wakefulness compared to the vehicle-treated control groups
"CC(C)(C)OC(=O)N1CCN(C(=O)CSCc2ccc3oc4ccc(F)cc4c3c2)CC1 [Example 26, 4-[2-(8-fluorodibenzofuran-2-yl-methylsulfanyl)acetyl]-piperazine-1-carboxylic acid tret-butyl ester]",132.0 % of waiking time x hr,significantly greated wakefulness
O=C(C[S+]([O-])Cc1cccc2c1oc1ccccc12)N1CCNCC1 (stereo not drawn) [Example 99],129.1 % of waiking time x hr,significantly greated wakefulness
O=C(C[S+]([O-])Cc1cccc2c1-c1ccccc1C2)N1CCNCC1 (stereo not drawn) [Example 130],149.2 % of waiking time x hr,significantly greated wakefulness
